Data published in patent publication US20080027042A1, “Novel Aminopyridine Derivatives Having Aurora a Selective Inhibitory Action” (priority 2004, published 2008).

Experiments:
[1] = biological target: T1, Aurora A (Homo sapiens, UniProt O14965); assay: Aurora A inhibitory action (33P-ATP kinase assay, Kemptide substrate); type: biochemical; conditions: 20 μM ATP, 30° C., 20 minutes
T1 construct: histidine tag (N); made in house; host or cells: Escherichia coli BL21-CodonPlus(DE3)-RIL
T1 sequence (O14965 1-403): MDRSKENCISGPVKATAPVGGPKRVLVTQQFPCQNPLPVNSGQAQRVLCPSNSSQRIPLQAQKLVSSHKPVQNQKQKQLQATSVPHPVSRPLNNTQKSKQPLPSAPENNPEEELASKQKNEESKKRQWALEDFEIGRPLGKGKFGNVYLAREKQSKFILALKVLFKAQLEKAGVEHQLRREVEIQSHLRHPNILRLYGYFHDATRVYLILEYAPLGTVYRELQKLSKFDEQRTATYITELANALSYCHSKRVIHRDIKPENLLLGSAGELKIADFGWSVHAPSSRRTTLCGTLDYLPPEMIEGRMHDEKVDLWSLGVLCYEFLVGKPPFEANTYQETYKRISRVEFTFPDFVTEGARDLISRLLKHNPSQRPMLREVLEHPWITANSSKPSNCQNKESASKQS
In short: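 His-tagged Aurora A expressed in E. coli, Ni-purified; reaction in 50 mM Tris pH 7.4, 15 mM Mg acetate, 0.2 mM EDTA with 100 μM Kemptide, 20 μM ATP plus [γ-33P]ATP, 20 min at 30 °C. Phosphopeptide captured on P81 filters and counted by scintillation; DMSO control.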

[2] = biological target: T2, Aurora B (Homo sapiens, UniProt Q96GD4); assay: Aurora B inhibitory action (33P-ATP kinase assay, Kemptide substrate); type: biochemical; conditions: 100 μM ATP, 30° C., 20 minutes
T2 construct: histidine tag (N); made in house; host or cells: Escherichia coli BL21-CodonPlus(DE3)-RIL
In short: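 His-tagged Aurora B expressed in E. coli, reacted with 100 μM Kemptide, 100 μM ATP plus [γ-33P]ATP in Tris pH 7.4, 15 mM Mg acetate, 0.2 mM EDTA, 30 °C, 20 min. Peptide captured on P81 filters for scintillation counting; compounds added from DMSO dilutions.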

[3] = tested on: Human cervical cancer cells (HeLa S3); assay: Cell growth inhibitory effect, WST-8 method; type: cell-based; conditions: 72 h, HeLa S3, three days incubation
Source text: Method for Judging the Pharmaceutical Effect Using cells
Fetal calf serum (FCS) was purchased from Moregate Biotech, and DMEM medium was purchased from Invitrogen Corp. WST-8 was purchased from Kishida Chemical Co., Ltd.
(§1) Human cervical cancer cells (HeLa S3) were obtained from the American Type Culture Collection (ATCC).
(§2) c) Method of Judging the Effect
Cells were suspended in a DMEM medium containing 10% FCS, and the cell suspension was dispensed to a 96-well plastic plate at a rate of 750 cells/l 00 microliters per well. The plate was incubated overnight in 5% CO2-95% air at 37° C. A drug was subjected to graded dilution in dimethylsulfoxide and further diluted with a DMEM medium containing 10% FCS. Then, the dilution was dispensed to the plate on which cells had been disseminated, at a rate of 100 microliters per well. The plate was incubated for further three days in 5% CO2-95% air at 37° C. Cell growth after incubation was measured by the WST-8 method (H. Tominaga, et al., Anal. Commun., 36, 47-50 (1999)). Here, the WST-8 method refers to a method in which 20 microliters of a WST-8 reagent solution is added to each well, incubation is conducted at 37° C. for 45 minutes, the plate is stirred, and the amount of formazan produced is measured by a calorimetric method to determine the inhibitory rate of the drug. The concentration for 50% growth inhibition (EC50, IM) of the compound was determined.

[4] = tested on: Human cervical cancer cells (HeLa S3); assay: Effect by combined use of drugs in cells (with paclitaxel), WST-8 method; type: cell-based; conditions: three days; for inhibition at 0.3 µM: HeLa S3, compound 0.3 μM alone; for inhibition at 0.03 µM: HeLa S3, compound 0.03 μM alone; for inhibition at 0.1 µM: HeLa S3, compound 0.1 μM alone
Source text: Method for Judging the Effect by Combined Use of Drugs in Cells
Fetal calf serum (FCS) was purchased from Moregate Biotech, DMEM medium from Invitrogen Corp., paclitaxel (tradename: Taxol) from Sigma-Aldrich, Inc., and WST-8 from Kishida Chemical Co., Ltd.
as §1, §2
Cells were suspended in a DMEM medium containing 10% FCS, and the cell suspension was dispensed to two 96-well plastic plates at a rate of 750 cells/100 microliters per well. The plates were incubated overnight in 5% CO2-95% air at 37° C. A drug was subjected to graded dilution in dimethylsulfoxide and flurther diluted with DMSO or with a DMEM medium containing 10% FCS and also containing 2 nM paclitaxel. Then, the dilutions were each dispensed to one of the plates on which cells had been disseminated, at a rate of 100 microliters per well. The final concentration of paclitaxel at this stage was 1 nM. Also, the concentrations in the case of sole administration of the compound according to the invention were 0.03, 0.1, 0.3, 1 and 3 μM. The plates were incubated for further three days in 5% CO2-95% air at 37° C. Cell growth after incubation was measured by the WST-8 method (H. Tominaga, et al., Anal. Commun., 36, 47-50 (1999)). Here, the WST-8 method refers to a method in which 20 microliters of a WST-8 reagent solution is added to each well, incubation is conducted at 37° C. for 45 minutes, the plate is stirred, and the amount of formazan produced is measured by a colorimetric method to determine the inhibitory rate of the drug. The growth inhibitory effects of paclitaxel and of the compound according to the invention were determined, with the value obtained in sole treatment of DMSO being defined as 0%.

[5] = HeLa S3, compound 0.3 μM + paclitaxel 1 nM
[6] = Homo sapiens, HeLa S3, 72 h, read-out: Cell growth inhibitory effect by sole administration of the compound of Example (%)
[7] = HeLa S3, compound 0.03 μM + paclitaxel 1 nM
[8] = HeLa S3, compound 0.1 μM + paclitaxel 1 nM

T2 sequence (Q96GD4 whole entry): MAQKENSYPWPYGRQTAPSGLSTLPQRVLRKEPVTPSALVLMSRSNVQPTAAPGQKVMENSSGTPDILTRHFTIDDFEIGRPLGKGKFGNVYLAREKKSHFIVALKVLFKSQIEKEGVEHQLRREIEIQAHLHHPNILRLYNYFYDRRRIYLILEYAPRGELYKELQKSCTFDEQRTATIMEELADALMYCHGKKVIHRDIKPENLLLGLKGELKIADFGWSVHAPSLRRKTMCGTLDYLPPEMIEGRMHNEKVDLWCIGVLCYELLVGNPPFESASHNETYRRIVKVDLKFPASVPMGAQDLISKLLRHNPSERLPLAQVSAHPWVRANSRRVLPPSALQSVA

IC50 [1] [nM]	IC50 [2] [nM]	IC50 [3] [nM]	melting point [°C]	Compound	Cell growth inhibitory effect by combined administration of paclitaxel and the compound of Example (%) [4, 5] [%]	inhibition at 0.3 µM [4, 6] [%]	Cell growth inhibitory effect by combined administration of paclitaxel and the compound of Example (%) [4, 7] [%]	inhibition at 0.03 µM [4, 6] [%]	Cell growth inhibitory effect by combined administration of paclitaxel and the compound of Example (%) [4, 8] [%]	inhibition at 0.1 µM [4, 6] [%]	Cell growth inhibitory effect by combined administration of paclitaxel and the compound of Example (%) ([4]; HeLa S3, compound 1.0 μM + paclitaxel 1 nM)	inhibition at 1 µM ([4]; Homo sapiens, HeLa S3, 72 h, HeLa S3, compound 1.0 μM alone, read-out: Cell growth inhibitory effect by sole administration of the compound of Example (%)) [%]
0.89	1100	2400	160 to 163	O=C(c1cccc(C(F)(F)F)c1F)N1CCN(Cc2cncc(Nc3cc[nH]n3)n2)CC1 [Example 44, 6-((4-(2-fluoro-3-(trifluoromethyl)benzoyl)piperazin-1-yl)methyl)-N-1H-pyrazol-3-ylpyrazin-2-amine]	86.5	7.1	–	–	–	–	–	–
0.59	250	220	–	COCc1cc(CN2CCN(C(=O)c3cccc(Cl)c3F)CC2)nc(Nc2nccs2)c1 [Example 95, 6-((4-(3-chloro-2-fluorobenzoyl)piperazin-1-yl)methyl)-4-(methoxymethyl)-N-thiazol-2-ylpyridin-2-amine]	–	–	73.5	0	–	–	–	–
1.1	1400	990	–	N#Cc1cc(CN2CCN(C(=O)c3cccc(Cl)c3F)CC2)nc(Nc2nccs2)c1 [Example 104, 2-((4-(3-chloro-2-fluorobenzoyl)piperazin-1-yl)methyl)-6-(thiazol-2-ylamino)isonicotinonitrile]	81.6	6.3	–	–	–	–	–	–

Second part, the molecule before the results:

Compound	IC50 [1] [nM]	IC50 [2] [nM]	IC50 [3] [nM]	melting point [°C]	Cell growth inhibitory effect by combined administration of paclitaxel and the compound of Example (%) [4, 5] [%]	inhibition at 0.3 µM [4, 6] [%]	Cell growth inhibitory effect by combined administration of paclitaxel and the compound of Example (%) [4, 7] [%]	inhibition at 0.03 µM [4, 6] [%]	Cell growth inhibitory effect by combined administration of paclitaxel and the compound of Example (%) [4, 8] [%]	inhibition at 0.1 µM [4, 6] [%]	Cell growth inhibitory effect by combined administration of paclitaxel and the compound of Example (%) ([4]; HeLa S3, compound 1.0 μM + paclitaxel 1 nM)	inhibition at 1 µM ([4]; Homo sapiens, HeLa S3, 72 h, HeLa S3, compound 1.0 μM alone, read-out: Cell growth inhibitory effect by sole administration of the compound of Example (%)) [%]
CN(C)C(=O)c1cc(CN2CCN(C(=O)c3cccc(Cl)c3F)CC2)nc(Nc2nccs2)c1.O=C(O)C(F)(F)F [Example 86, 2-((4-(3-chloro-2-fluorobenzoyl)piperazin-1-yl)methyl)-N,N-dimethyl-6-(thiazol-2-ylamino)isonicotinamide trifluoroacetate]	0.66	560	510	–	–	–	71.6	6.2	–	–	–	–
O=C(c1cccc(Cl)c1F)N1CCN(Cc2cc(CO)cc(Nc3nccs3)n2)CC1 [Example 89, (2-((4-(3-chloro-2-fluorobenzoyl)piperazin-1-yl)methyl)-6-(thiazol-2-ylamino)pyridin-4-yl)methanol]	0.38	200	360	–	–	–	–	–	85.8	19.1	–	–
Cn1nnnc1-c1cc(CN2CCN(C(=O)c3cccc(Cl)c3F)CC2)nc(Nc2nccs2)c1 [Example 106, 6-((4-(3-chloro-2-fluorobenzoyl)piperazin-1-yl)methyl)-4-(1-methyl-1H-tetrazol-5-yl)-N-thiazol-2-ylpyridin-2-amine]	0.88	400	400	–	–	–	–	–	76.7	6.1	–	–
Cn1nnc(-c2cc(CN3CCN(C(=O)c4cccc(Cl)c4F)CC3)nc(Nc3nccs3)c2)n1 [Example 107, 6-((4-(3-chloro-2-fluorobenzoyl)piperazin-1-yl)methyl)-4-(2-methyl-2H-tetrazol-5-yl)-N-thiazol-2-ylpyridin-2-amine]	0.32	190	210	–	–	–	74.1	11.5	–	–	–	–
O=C(c1cccc(Cl)c1F)N1CCN(Cc2cc(-c3ncn[nH]3)cc(Nc3nccs3)n2)CC1 [Example 108, 6-((4-(3-chloro-2-fluorobenzoyl)piperazin-1-yl)methyl)-N-thiazol-2-yl-4-(1H-1,2,4-triazol-5-yl)pyridin-2-amine]	0.59	800	1200	–	–	–	–	–	–	–	86.4	17.2
